Activity calls are given as the source filed them. No cut-off for these calls is given here.
Experiments:
Rattus norvegicus [1] = assay: Antihypertensive activity in spontaneously hypertensive rat assessed as change in systolic blood pressure at 300 mg/kg, po; type: functional, organism-based; set-up: dose 300 mg/kg; conditions: Artery
Rattus norvegicus [2] = assay: Antihypertensive activity in spontaneously hypertensive rat assessed as change in diastolic blood pressure at 300 mg/kg, po; type: functional, organism-based; set-up: dose 300 mg/kg; conditions: Artery
Rattus norvegicus [3] = assay: Antihypertensive activity in spontaneously hypertensive rat assessed as change in heart rate at 300 mg/kg, po; type: functional, organism-based; set-up: dose 300 mg/kg
Rattus norvegicus [4] = assay: Antihypertensive activity in spontaneously hypertensive rat assessed as change in pulse pressure at 300 mg/kg, po; type: functional, organism-based; set-up: dose 300 mg/kg
Cytochrome P450 3A4 = Cytochrome P450 3A4 (Homo sapiens, UniProt P08684); assay: Inhibition of CYP3A4; type: ADME
Chain of Cytochrome P450 3A4 (P08684 whole entry): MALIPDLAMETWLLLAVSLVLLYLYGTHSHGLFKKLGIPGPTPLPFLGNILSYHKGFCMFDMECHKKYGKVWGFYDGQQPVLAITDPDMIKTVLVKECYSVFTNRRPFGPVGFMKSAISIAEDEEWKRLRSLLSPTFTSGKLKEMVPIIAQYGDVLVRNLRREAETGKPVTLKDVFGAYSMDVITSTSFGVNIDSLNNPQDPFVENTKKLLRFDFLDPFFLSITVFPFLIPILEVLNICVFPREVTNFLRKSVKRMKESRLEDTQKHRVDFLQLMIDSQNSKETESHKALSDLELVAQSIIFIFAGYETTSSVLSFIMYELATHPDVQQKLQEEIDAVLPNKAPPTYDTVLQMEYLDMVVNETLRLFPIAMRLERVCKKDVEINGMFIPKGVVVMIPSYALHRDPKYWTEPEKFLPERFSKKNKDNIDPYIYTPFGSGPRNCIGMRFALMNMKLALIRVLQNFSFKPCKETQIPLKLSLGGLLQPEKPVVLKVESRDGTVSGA

[5] = target: T1, Bifunctional epoxide hydrolase 2 (Homo sapiens, UniProt P34913); assay: Inhibition of human soluble epoxide hydrolase in HEK293 cells assessed as DHET production; type: cell-based
T1 sequence (P34913 whole entry): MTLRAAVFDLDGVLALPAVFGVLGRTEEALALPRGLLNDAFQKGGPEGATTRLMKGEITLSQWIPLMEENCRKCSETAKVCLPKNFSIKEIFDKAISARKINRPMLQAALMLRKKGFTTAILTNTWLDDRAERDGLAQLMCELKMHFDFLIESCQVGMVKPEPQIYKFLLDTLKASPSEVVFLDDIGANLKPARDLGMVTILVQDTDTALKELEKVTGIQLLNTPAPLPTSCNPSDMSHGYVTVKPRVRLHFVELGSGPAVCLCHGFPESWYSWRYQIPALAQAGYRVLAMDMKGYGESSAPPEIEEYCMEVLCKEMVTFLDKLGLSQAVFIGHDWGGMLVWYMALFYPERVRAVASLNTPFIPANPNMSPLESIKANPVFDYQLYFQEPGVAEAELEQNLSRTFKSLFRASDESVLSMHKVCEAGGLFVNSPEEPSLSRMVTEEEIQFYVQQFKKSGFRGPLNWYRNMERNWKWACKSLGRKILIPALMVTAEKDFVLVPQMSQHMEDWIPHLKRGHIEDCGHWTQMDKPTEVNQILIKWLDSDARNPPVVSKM

[6] = Volume of distribution at steady state in rat at 1 mg/kg, iv and 2 mg/kg, po; type: ADME, organism-based; conditions: in vivo, read-out: Vdss
[7] = target: T2, Bifunctional epoxide hydrolase 2 (Rattus norvegicus, UniProt P80299); assay: Inhibition of rat soluble epoxide hydrolase
T2 sequence (P80299 whole entry): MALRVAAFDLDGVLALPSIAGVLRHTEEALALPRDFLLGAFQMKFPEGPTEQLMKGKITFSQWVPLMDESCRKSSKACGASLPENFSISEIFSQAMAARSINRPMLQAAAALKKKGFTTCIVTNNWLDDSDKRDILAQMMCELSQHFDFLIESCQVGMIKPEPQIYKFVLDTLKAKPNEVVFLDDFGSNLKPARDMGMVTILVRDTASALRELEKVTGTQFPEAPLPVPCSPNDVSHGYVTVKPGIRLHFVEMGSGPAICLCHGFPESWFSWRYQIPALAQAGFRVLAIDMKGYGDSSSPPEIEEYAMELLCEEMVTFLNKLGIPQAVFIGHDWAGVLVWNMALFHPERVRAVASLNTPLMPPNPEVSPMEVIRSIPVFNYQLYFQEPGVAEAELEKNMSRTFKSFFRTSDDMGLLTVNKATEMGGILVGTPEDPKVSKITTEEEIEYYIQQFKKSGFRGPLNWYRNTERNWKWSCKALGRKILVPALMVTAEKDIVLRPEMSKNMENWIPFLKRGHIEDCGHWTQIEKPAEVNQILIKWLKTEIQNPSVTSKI

Cytochrome P450 2C9 = Cytochrome P450 2C9 (Homo sapiens, UniProt P11712); assay: Inhibition of CYP2C9; type: ADME
Chain of Cytochrome P450 2C9 (P11712 whole entry): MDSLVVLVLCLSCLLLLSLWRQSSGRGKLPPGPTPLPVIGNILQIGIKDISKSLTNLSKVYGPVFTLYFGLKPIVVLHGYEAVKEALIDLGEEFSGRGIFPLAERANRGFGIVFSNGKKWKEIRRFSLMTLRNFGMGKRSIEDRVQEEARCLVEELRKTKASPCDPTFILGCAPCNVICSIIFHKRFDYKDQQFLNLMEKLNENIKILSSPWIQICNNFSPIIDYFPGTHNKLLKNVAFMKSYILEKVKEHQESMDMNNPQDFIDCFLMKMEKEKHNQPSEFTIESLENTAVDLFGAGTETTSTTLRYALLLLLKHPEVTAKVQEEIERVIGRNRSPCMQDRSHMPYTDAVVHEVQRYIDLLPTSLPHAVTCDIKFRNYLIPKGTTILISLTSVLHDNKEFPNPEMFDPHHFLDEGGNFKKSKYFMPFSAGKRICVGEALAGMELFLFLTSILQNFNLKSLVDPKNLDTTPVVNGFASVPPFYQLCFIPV

[8] = Bioavailability in rat at 1 mg/kg, iv and 2 mg/kg, po; type: ADME, organism-based; conditions: in vivo
Epoxide hydrolase 1 = target: T3, Epoxide hydrolase 1 (Homo sapiens, UniProt P07099); assay: Inhibition of human microsomal epoxide hydrolase
T3 sequence (P07099 whole entry): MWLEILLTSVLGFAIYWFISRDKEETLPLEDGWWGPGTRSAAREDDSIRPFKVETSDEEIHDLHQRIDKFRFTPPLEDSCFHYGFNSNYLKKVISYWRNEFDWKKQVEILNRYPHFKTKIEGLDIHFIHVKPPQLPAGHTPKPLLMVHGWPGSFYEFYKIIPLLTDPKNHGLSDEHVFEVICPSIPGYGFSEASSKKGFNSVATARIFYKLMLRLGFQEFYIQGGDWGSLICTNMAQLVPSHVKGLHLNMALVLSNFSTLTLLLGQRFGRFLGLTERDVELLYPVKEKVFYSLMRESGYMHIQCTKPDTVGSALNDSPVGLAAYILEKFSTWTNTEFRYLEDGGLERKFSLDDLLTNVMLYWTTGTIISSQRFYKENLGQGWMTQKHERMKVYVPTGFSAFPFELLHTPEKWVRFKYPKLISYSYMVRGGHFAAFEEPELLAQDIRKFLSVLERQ

[9] = target: T1, Bifunctional epoxide hydrolase 2; assay: Inhibition of human soluble epoxide hydrolase
[10] = Half life in rat at 1 mg/kg, iv and 2 mg/kg, po; type: ADME, organism-based; conditions: in vivo
[11] = Clearance in rat at 1 mg/kg, iv and 2 mg/kg, po; type: ADME, organism-based; conditions: in vivo
[12] = Inhibition of potassium channel IKr
[13] = Binding affinity to […] channel diltiazem binding site
[14] = target: Sodium channel protein type 5 subunit alpha (Homo sapiens, UniProt Q14524); assay: Inhibition of Voltage-gated sodium channel subunit alpha Nav1.5
Chain of Sodium channel protein type 5 subunit alpha (Q14524 whole entry): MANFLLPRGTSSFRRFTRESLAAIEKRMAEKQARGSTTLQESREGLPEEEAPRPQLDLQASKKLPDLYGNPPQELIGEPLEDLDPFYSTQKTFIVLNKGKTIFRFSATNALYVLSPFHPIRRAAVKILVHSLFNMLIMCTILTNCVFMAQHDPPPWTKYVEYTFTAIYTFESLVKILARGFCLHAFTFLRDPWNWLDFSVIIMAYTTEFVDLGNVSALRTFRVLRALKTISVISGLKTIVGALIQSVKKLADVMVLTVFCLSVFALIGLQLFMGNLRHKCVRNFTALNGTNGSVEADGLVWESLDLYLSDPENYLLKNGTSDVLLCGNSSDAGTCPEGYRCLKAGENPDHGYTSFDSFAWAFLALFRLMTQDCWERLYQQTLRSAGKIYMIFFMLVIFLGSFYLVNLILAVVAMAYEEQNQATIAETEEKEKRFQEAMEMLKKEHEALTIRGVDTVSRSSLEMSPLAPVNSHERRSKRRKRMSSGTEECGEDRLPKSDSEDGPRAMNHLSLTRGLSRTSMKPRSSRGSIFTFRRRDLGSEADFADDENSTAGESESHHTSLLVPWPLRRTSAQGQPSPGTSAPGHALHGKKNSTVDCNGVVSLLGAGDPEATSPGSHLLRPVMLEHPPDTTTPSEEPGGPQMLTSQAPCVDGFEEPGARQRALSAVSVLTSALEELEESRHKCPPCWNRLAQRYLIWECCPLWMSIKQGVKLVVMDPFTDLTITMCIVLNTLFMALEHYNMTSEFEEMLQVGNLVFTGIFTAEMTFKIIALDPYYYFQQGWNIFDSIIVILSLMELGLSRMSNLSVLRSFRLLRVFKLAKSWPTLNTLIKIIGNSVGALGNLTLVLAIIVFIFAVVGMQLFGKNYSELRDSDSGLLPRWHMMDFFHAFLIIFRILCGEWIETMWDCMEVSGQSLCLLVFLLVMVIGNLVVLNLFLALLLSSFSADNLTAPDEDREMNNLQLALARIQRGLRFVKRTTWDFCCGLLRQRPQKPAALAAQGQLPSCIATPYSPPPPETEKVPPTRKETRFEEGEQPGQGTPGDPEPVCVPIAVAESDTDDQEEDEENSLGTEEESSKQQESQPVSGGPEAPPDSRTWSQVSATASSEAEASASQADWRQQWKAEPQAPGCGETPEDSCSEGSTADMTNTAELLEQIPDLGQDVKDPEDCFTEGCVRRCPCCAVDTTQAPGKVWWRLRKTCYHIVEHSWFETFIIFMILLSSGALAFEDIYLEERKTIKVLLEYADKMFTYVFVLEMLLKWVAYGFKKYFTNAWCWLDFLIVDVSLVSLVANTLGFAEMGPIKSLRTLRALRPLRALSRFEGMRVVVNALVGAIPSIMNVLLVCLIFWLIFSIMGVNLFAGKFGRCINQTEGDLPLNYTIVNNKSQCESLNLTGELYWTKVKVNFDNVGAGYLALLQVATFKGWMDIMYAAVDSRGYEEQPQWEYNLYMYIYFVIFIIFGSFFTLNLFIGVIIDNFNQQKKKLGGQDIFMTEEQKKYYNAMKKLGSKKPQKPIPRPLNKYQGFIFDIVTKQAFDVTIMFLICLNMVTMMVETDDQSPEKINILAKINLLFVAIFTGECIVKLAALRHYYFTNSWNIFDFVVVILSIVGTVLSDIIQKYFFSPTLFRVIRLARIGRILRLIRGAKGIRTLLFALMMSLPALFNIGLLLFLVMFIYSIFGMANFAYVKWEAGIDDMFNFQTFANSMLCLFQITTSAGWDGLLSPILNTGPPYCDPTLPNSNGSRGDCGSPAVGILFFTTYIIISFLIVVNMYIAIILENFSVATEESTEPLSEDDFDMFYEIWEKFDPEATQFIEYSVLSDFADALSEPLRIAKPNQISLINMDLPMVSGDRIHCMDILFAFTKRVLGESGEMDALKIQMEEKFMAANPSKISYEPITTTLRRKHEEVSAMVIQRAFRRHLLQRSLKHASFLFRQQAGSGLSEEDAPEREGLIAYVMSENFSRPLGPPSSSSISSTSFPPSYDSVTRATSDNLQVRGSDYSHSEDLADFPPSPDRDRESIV

Blood = assay: Inhibition of DHET production in rat whole blood at 1 uM after 1 hr; type: functional; set-up: Activity: scale not given: the % may be the effect or the level left
Cytochrome P450 2D6 = Cytochrome P450 2D6 (Homo sapiens, UniProt P10635); assay: Inhibition of CYP2D6; type: ADME
Chain of Cytochrome P450 2D6 (P10635 whole entry): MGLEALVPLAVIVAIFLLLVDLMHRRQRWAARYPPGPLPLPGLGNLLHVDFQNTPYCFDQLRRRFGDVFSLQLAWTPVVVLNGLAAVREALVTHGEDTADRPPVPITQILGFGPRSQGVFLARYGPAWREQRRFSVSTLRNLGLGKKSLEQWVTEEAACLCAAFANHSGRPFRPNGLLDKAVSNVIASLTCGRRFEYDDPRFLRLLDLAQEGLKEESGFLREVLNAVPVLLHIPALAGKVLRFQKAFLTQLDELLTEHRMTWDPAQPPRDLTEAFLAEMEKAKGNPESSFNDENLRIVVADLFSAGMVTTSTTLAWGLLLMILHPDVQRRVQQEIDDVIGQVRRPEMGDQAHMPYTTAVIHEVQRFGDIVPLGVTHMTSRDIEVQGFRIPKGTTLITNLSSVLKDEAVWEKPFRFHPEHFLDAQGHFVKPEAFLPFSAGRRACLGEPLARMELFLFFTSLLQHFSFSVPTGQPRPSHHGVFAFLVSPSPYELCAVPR

Rattus norvegicus [15] = assay: Ex vivo inhibition of DHET production in spontaneously hypertensive rat plasma at 50 mg/kg, po after 0.5 to 6 hrs; type: functional
[16] = Plasma concentration in spontaneously hypertensive rat plasma at 300 mg/kg, after 2 hrs; type: ADME, organism-based; set-up: dose 300 mg/kg
Rattus norvegicus [17] = assay: Plasma concentration in spontaneously hypertensive rat plasma at 50 mg/kg, po; type: ADME, organism-based; set-up: dose 50 mg/kg, route oral; conditions: in vivo
[18] = Plasma concentration in spontaneously hypertensive rat plasma at 300 mg/kg, after 5 hrs; type: ADME, organism-based; set-up: dose 300 mg/kg
[19] = Plasma concentration in spontaneously hypertensive rat plasma at 300 mg/kg, after 24 hrs; type: ADME, organism-based; set-up: dose 300 mg/kg

Compound: O=C1CC2(CCN(C(=O)N[C@H]3C[C@@H]3c3ccccc3)CC2)Oc2ccccc21 (racemic) [listing 1 of 2 here]
- Activity (Rattus norvegicus [1]): inactive
- Activity (Rattus norvegicus [2]): inactive
- Activity (Rattus norvegicus [3]): inactive
- Activity (Rattus norvegicus [4]): inactive

Compound: CS(=O)(=O)c1ccc2c(c1)CCC1(CCN(C(=O)c3ccc(C(F)(F)F)cc3)CC1)O2
- IC50 (Cytochrome P450 3A4): > 10 µM
- IC50 [5]: < 0.001 µM
- Vd [6]: 1.6 L/kg
- IC50 [7]: 0.019 µM
- IC50 (Cytochrome P450 2C9): 7.6 µM
- bioavailability [8]: 61%
- IC50 (Epoxide hydrolase 1): > 100 µM
- IC50 [9]: 0.002 µM
- half-life [10]: 18 h
- clearance [11]: 0.9 mL/min/kg
- IC50 [12]: 25 µM
- IC50 [13]: > 30 µM
- IC50 [14]: > 10 µM
- Activity (Blood): 66%
- IC50 (Cytochrome P450 2D6): > 10 µM

Compound: O=C1CC2(CCN(C(=O)N[C@H]3C[C@@H]3c3ccccc3)CC2)Oc2ccccc21 (racemic) [listing 2 of 2 here]
- Vd [6]: 3.1 L/kg
- inhibition in vivo at 50 mg/kg (Rattus norvegicus [15]): > 95%
- bioavailability [8]: 61%
- concentration at 2 h [16]: 3600 nM
- half-life [10]: 1.5 h
- concentration (Rattus norvegicus [17]): 800 nM
- clearance [11]: 47 mL/min/kg
- concentration at 5 h [18]: 2700 nM
- concentration at 24 h [19]: 1700 nM
- Activity (Blood): 8.6%
